These results are taken from patent US20080194491A1, “Methods of Diagnosing, Preventing, and Treating Early Onset of Pulmonary Hypertension” (priority 2002, published 2008).

The subject of one experiment is mammary epithelial cells. Conditions: absence of extracellular matrix; cited from earlier work.
Another experiment relates to lung apoptosis after MCT. The experiment is described as follows: Early caspase inhibition after MCT: lung apoptosis by TUNEL assay. The format is in vivo, Rats. Here is the method:
The methods set out in Example 3 were employed. In this set of experiments, the inventors tried to establish the effect of apoptosis inhibitors on the early development of the apoptotic pathways. They blocked the caspase activity at a much earlier time point (18 hours post MCT injection and another injection 24 hours after that) using two classes of caspase inhibitors, namely Z-Asp (2.5 mg/Kg) and Z-VAD (1.5 mg/Kg; see FIG. 10 for details). Rats were sacrificed 24, 48 and 72 hours post last dose of inhibitors/DMSO injection and lungs were collected for histology and activity assay. Apoptosis were measured by both TUNEL and caspase activity assays, as previously described.

In a further experiment the test system is T-lymphocyte cell line. Conditions: cited from earlier work.
Another experiment concerns motoneurons. Particulars: in vitro and in vivo; cited from earlier work.
For experiment [1], the system named is Human pulmonary artery epithelial cells (HPAEC). As to the kind of experiment: HPAEC apoptosis induced by serum withdrawal (flow cytometry Annexin V, TUNEL). The format is cell-based. Particulars: pretreatment 100-200 ng/ml for 2 hours; flow cytometry and TUNEL assay. Here is the method:
(§1) The inventors investigated the effect of BMPR2 signaling on pulmonary endothelial cell proliferation and survival. Human pulmonary artery […] cells (HPAEC) were grown in EBM-2 medium supplemented with 2% FBS and growth factors (Clonetics). Apoptosis was induced either by serum withdrawal (see FIG. 17) or exposure of cells to TNFα. […] Apoptosis was evaluated by three independent methods: 1) flow cytometry using Annexin V, a Ca2+ dependent phospholipid-binding protein with affinity for phosphatidylserine (PS; translocation of PS from the inner leaflet of plasma membrane to the outer layer occurs during the early stage of apoptosis), 2) TUNEL assay and, 3) caspase activity assay.
On the technique in general: A flow cytometer gives signals particle by particle.

Experiment [2] has as its system Human pulmonary artery cells (HPAEC). The experiment is described as follows: HPAEC apoptosis induced by TNF (caspase activity assay). Conditions: pretreatment 100-200 ng/ml for 2 hours, TNF 10-20 ng/ml. The format is cell-based. As for the experimental part: as §1

For `CC(C)(C)OC(=O)N[C@@H](CC(=O)OCc1ccccc1)C(=O)CCl` [Boc-D-(benzyl) chloromethylketone], in the experiment with mammary epithelial cells, the “cell death of mammary epithelial cells” value is “prevented”. For Z-VAD, the inhibition of apoptosis result with lung apoptosis after MCT (48 or 72 hours after the last treatment) was “less potent”; with lung apoptosis after MCT (24 hours after the last treatment), “most effective”. Consider acetyl-DEVD-aldehyde, for which the anti-Fas induced apoptosis result in the experiment on T-lymphocyte cell line is on record as “inhibited”.

For the molecule acetyl-YVAD-aldehyde, in the experiment on motoneurons, the death of motoneurons result is given as “blocked”. As to acetyl-YVAD-chloromethylketone, the death of motoneurons result with motoneurons is on record as “blocked”.

B1: BMP7: bone morphogenetic protein (protein, UniProt P18075 293-431, looked up)
Bone morphogenetic protein 7: STGSKQRSQNRSKTPKNQEALRMANVAENSSSDQRQACKKHELYVSFRDLGWQDWIIAPEGYAAYYCEGECAFPLNSYMNATNHAIVQTLVHFINPETVPKPCCAPTQLNAISVLYFDDSSNVILKKYRNMVVRACGCH
B1: the “apoptosis induced by serum withdrawal” value in experiment [1] is “protected the cells from apoptosis”. Further, in experiment [2], the “apoptosis induced by TNF treatment” value is on record as “protect the cells from apoptosis”.
